Target: T1, ΔF508-CFTR (Homo sapiens, UniProt P13569, DEL508-508)
T1 construct: Primary lung epithelial cells homozygous for the Cystic Fibrosis-causing ΔF508 mutation were differentiated for a minimum of 4 weeks; endogenous in cells; host or cells: primary lung epithelial cells (hBE) homozygous for ΔF508, differentiated at an air-liquid interface
Assay: hBE equivalent current (Ieq) assay: AUC of equivalent chloride current after forskolin/VX-770 in primary lung epithelial cells homozygous for ΔF508
Type: cell-based
Conditions: relative to CFTR amplifier (Compound A)+VX-809 (3 uM), compound at 10 uM and Compound A at 3 uM, 24 h treatment
Protocol: ii. hBE Equivalent Current (Ieq) Assay
Primary lung epithelial cells homozygous for the Cystic Fibrosis-causing ΔF508 mutation were differentiated for a minimum of 4 weeks in an air-liquid interface on Costar 24 well HTS filter plates prior to the equivalent current (Ieq) measurements. Cells were apically mucus-washed for 30 minutes 24 h prior to treatment with compounds. The basolateral media was removed and replaced with media containing the compound of interest diluted to its final concentration from DMSO stocks. Treated cells were incubated at 37° C. and 5% CO2 for 24 hours. At the end of the treatment period, the media was changed to the Ieq experimental solution for 2 hours before the experiment and plates are maintained in a CO2-free incubator during this period. The plates containing the cells were then placed in pre-warmed heating blocks at 36° C.±0.5 for 15 minutes before measurements are taken. The transepithelial voltage (VT) and conductance (GT) were measured using a custom 24 channel current clamp (TECC-24) with 24 well electrode manifold. The Ieq assay measurements were made following additions with standardized time periods: • 1. The baseline VT and GT values were measured for approximately 20 minutes. • 2. Benzamil was added to block ENaC for 15 minutes. • 3. Forskolin plus VX-770 were added to maximally activate ΔF508-CFTR for 27 minutes. • 4. Bumetanide was added to inhibit the NaK2Cl cotransporter and shut-off secretion of chloride.
The activity data captured was the area under the curve (AUC) for the traces of the equivalent chloride current. The AUC was collected from the time of the forskolin/VX-770 addition until the inhibition by bumetanide addition. Correction in response to compound treatment was scored as the increase in the AUC for compound-treated samples over that of vehicle-treated samples.
(+ indicates activity<50% of an CFTR amplifier (Compound A)+VX-809 (3 uM) with compound at 10 uM and Compound A at 3 uM; ++ indicates activity>50% of CFTR amplifier+VX-809 (3 uM) with compound at 10 uM and Compound A at 3 uM.

T1 sequence (P13569 with tags, fused parts or gaps DEL508-508): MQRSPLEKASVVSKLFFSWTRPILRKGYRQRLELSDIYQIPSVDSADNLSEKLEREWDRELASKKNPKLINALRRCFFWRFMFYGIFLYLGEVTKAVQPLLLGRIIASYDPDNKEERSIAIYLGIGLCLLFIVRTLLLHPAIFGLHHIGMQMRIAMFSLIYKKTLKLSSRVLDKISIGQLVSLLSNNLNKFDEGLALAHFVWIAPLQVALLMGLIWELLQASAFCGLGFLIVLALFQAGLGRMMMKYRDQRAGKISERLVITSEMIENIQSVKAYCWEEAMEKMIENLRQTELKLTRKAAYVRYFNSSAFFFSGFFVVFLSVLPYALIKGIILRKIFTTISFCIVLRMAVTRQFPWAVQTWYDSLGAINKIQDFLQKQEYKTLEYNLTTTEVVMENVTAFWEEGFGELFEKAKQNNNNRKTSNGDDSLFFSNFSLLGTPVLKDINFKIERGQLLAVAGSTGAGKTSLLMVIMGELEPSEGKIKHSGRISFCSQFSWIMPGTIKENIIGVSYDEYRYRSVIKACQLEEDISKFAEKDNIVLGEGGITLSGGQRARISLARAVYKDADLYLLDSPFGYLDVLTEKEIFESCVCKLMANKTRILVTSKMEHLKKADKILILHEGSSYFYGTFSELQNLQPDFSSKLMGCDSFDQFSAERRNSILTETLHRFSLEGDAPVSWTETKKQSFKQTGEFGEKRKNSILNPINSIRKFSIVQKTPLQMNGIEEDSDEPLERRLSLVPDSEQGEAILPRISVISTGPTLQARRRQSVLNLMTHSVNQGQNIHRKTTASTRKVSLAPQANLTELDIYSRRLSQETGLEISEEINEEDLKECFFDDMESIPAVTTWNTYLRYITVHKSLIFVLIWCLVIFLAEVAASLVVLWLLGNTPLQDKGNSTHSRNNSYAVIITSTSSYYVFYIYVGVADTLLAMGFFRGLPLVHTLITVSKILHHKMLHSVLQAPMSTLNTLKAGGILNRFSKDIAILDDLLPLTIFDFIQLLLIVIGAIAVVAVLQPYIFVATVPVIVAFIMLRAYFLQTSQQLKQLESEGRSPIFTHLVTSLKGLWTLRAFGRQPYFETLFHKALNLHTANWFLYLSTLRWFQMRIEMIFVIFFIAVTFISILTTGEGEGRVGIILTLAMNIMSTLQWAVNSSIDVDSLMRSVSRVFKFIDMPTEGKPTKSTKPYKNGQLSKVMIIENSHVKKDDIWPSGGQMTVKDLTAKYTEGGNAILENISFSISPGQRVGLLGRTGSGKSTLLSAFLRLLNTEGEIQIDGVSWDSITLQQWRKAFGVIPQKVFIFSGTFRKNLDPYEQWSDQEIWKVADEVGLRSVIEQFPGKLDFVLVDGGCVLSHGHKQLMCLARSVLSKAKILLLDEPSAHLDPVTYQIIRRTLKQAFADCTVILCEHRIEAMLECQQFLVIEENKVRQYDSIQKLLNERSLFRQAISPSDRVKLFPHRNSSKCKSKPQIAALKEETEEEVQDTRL

| SMILES | Activity |
| --- | --- |
| Cc1c(-c2cc(C(=O)O)c3cc(C4CC4)cc(C)c3n2)oc2ccccc12 [Compound 28, 6-Cyclopropyl-8-methyl-2-(3-methyl-1-benzofuran-2-yl)quinoline-4-carboxylic Acid] | ++ (activity>50% of CFTR amplifier+VX-809 (3 uM) with compound at 10 uM and Compound A at 3 uM) |
| Cc1cc(C)c2nc(-c3oc4ccccc4c3C)cc(CO)c2c1 [Compound 29, [6,8-Dimethyl-2-(3-methyl-1-benzofuran-2-yl)quinolin-4-yl]methanol] | + (activity<50% of an CFTR amplifier (Compound A)+VX-809 (3 uM) with compound at 10 uM and Compound A at 3 uM) |
| Cc1c(-c2cc(C(=O)O)c3c(OCc4ccccc4)ccc(C)c3n2)oc2ccccc12 [Compound 30, 5-(benzyloxy)-8-methyl-2-(3-methyl-1-benzofuran-2-yl)quinoline-4-carboxylic acid] | ++ (activity>50% of CFTR amplifier+VX-809 (3 uM) with compound at 10 uM and Compound A at 3 uM) |
| Cc1c(-c2cc(C(=O)O)c3c(C)ccc(C)c3n2)oc2ccccc12 [Compound 31, 5,8-Dimethyl-2-(3-methyl-1-benzofuran-2-yl)quinoline-4-carboxylic acid] | ++ (activity>50% of CFTR amplifier+VX-809 (3 uM) with compound at 10 uM and Compound A at 3 uM) |
| CCc1c(-c2cc(C(=O)O)c3c(C)ccc(C)c3n2)oc2ccccc12 [Compound 32, 2-(3-Ethyl-1-benzofuran-2-yl)-5,8-dimethylquinoline-4-carboxylic acid] | ++ (activity>50% of CFTR amplifier+VX-809 (3 uM) with compound at 10 uM and Compound A at 3 uM) |
| Cc1c(-c2cc(C(=O)O)c3c(OCc4ccccc4)ccc(C)c3n2)sc2ccccc12 [Compound 33, 5-(Benzyloxy)-8-methyl-2-(3-methyl-1-benzothiophen-2-yl)quinoline-4-carboxylic acid] | ++ (activity>50% of CFTR amplifier+VX-809 (3 uM) with compound at 10 uM and Compound A at 3 uM) |
| Cc1ccc(OCc2ccccc2)c2c(C(=O)O)cc(-c3cc4ccccc4s3)nc12 [Compound 34, 2-(1-Benzothiophen-2-yl)-5-(benzyloxy)-8-methylquinoline-4-carboxylic acid] | ++ (activity>50% of CFTR amplifier+VX-809 (3 uM) with compound at 10 uM and Compound A at 3 uM) |
| Cc1oc2ccccc2c1-c1cc(C(=O)O)c2c(OCc3ccccc3)ccc(C)c2n1 [Compound 35, 5-(Benzyloxy)-8-methyl-2-(2-methyl-1-benzofuran-3-yl)quinoline-4-carboxylic acid] | ++ (activity>50% of CFTR amplifier+VX-809 (3 uM) with compound at 10 uM and Compound A at 3 uM) |
| Cc1c(-c2cc(C(=O)O)c3cc(C(C)C)cc(C)c3n2)oc2ccccc12 [Compound 36] | ++ (activity>50% of CFTR amplifier+VX-809 (3 uM) with compound at 10 uM and Compound A at 3 uM) |
| Cc1c(-c2cc(C(=O)O)c3cc(-c4ccccc4)cc(C)c3n2)oc2ccccc12 [Compound 37] | ++ (activity>50% of CFTR amplifier+VX-809 (3 uM) with compound at 10 uM and Compound A at 3 uM) |
| Cc1ccc(C)c2c(C(=O)O)cc(-c3oc4ccccc4c3Cl)nc12 [Compound 38, 2-(3-Chloro-1-benzofuran-2-yl)-5,8-dimethylquinoline-4-carboxylic acid] | + (activity<50% of an CFTR amplifier (Compound A)+VX-809 (3 uM) with compound at 10 uM and Compound A at 3 uM) |
| Cc1ccc(C)c2c(C(=O)O)cc(-c3oc4ccccc4c3Br)nc12 [Compound 39, 2-(3-Bromo-1-benzofuran-2-yl)-5,8-dimethylquinoline-4-carboxylic acid] | + (activity<50% of an CFTR amplifier (Compound A)+VX-809 (3 uM) with compound at 10 uM and Compound A at 3 uM) |
| Cc1c(-c2cc(C(=O)O)c3c(C)ccc(OCc4ccccc4)c3n2)oc2ccccc12 [Compound 40, 8-(Benzyloxy)-5-methyl-2-(3-methyl-1-benzofuran-2-yl)quinoline-4-carboxylic acid] | + (activity<50% of an CFTR amplifier (Compound A)+VX-809 (3 uM) with compound at 10 uM and Compound A at 3 uM) |
| Cc1cc2c(C(=O)O)cc(-c3oc4ccccc4c3C)nc2cc1OCc1ccccc1 [Compound 41, 7-(Benzyloxy)-6-methyl-2-(3-methyl-1-benzofuran-2-yl)quinoline-4-carboxylic acid] | + (activity<50% of an CFTR amplifier (Compound A)+VX-809 (3 uM) with compound at 10 uM and Compound A at 3 uM) |
| Cc1c(-c2cc(C(=O)O)c3c(OCCc4ccccc4)ccc(C)c3n2)oc2ccccc12 [Compound 73, 8-methyl-2-(3-methyl-1-benzofuran-2-yl)-5-(2-phenylethoxy)quinoline-4-carboxylic acid] | ++ (activity>50% of CFTR amplifier+VX-809 (3 uM) with compound at 10 uM and Compound A at 3 uM) |
| Cc1c(-c2cc(C(=O)O)c3c(OC4CC(c5ccccc5)C4)ccc(C)c3n2)oc2ccccc12 (centres unmarked) [Compound 75, 8-Methyl-2-(3-methyl-1-benzofuran-2-yl)-5-(3-phenylcyclobutoxy)quinoline-4-carboxylic acid] | ++ (activity>50% of CFTR amplifier+VX-809 (3 uM) with compound at 10 uM and Compound A at 3 uM) |
| Cc1c(-c2cc(C(=O)O)c3c(O[C@H]4CC[C@H](c5ccccc5)CC4)ccc(C)c3n2)oc2ccccc12 [Compound 76, 8-Methyl-2-(3-methyl-1-benzofuran-2-yl)-5-[[(1r,4r)-4-phenylcyclohexyl]oxy]quinoline-4-carboxylic acid] | ++ (activity>50% of CFTR amplifier+VX-809 (3 uM) with compound at 10 uM and Compound A at 3 uM) |
| Cc1c(-c2cc(C(=O)O)c3c(OC4CCCC(c5ccccc5)C4)ccc(C)c3n2)oc2ccccc12 (centres unmarked) [Compound 77, 8-Methyl-2-(3-methyl-1-benzofuran-2-yl)-5-[(3-phenylcyclohexyl)oxy]quinoline-4-carboxylic acid] | ++ (activity>50% of CFTR amplifier+VX-809 (3 uM) with compound at 10 uM and Compound A at 3 uM) |
| Cc1c(-c2cc(C(=O)O)c3c(OC4CCCCC4)ccc(C)c3n2)oc2ccccc12 [Compound 79, 5-(Cyclohexyloxy)-8-methyl-2-(3-methyl-1-benzofuran-2-yl)quinoline-4-carboxylic acid] | ++ (activity>50% of CFTR amplifier+VX-809 (3 uM) with compound at 10 uM and Compound A at 3 uM) |
| Cc1c(-c2cc(C(=O)O)c3c(OC(=O)Nc4ccccc4)ccc(C)c3n2)oc2ccccc12 [Compound 81, 8-Methyl-2-(3-methyl-1-benzofuran-2-yl)-5-[(phenylcarbamoyl)oxy]quinoline-4-carboxylic Acid] | + (activity<50% of an CFTR amplifier (Compound A)+VX-809 (3 uM) with compound at 10 uM and Compound A at 3 uM) |
| Cc1ccc(OCc2ccccc2)c2c(C(=O)O)cc(-c3snc4ccccc34)nc12 [Compound 86, 2-(2,1-Benzothiazol-3-yl)-5-(benzyloxy)-8-methylquinoline-4-carboxylic Acid] | ++ (activity>50% of CFTR amplifier+VX-809 (3 uM) with compound at 10 uM and Compound A at 3 uM) |
| Cc1ccc(OCc2ccccc2)c2c(C(=O)O)cc(-c3csc4ccccc34)nc12 [Compound 95, 2-(1-Benzothiophen-3-yl)-5-(benzyloxy)-8-methylquinoline-4-carboxylic acid] | ++ (activity>50% of CFTR amplifier+VX-809 (3 uM) with compound at 10 uM and Compound A at 3 uM) |
| Cc1c(-c2cc(C(=O)O)c3c(OC4CCC(c5nnco5)CC4)ccc(C)c3n2)oc2ccccc12 (centres unmarked) [Compound 97, 8-Methyl-2-(3-methyl-1-benzofuran-2-yl)-5-[[4-(1,3,4-oxadiazol-2-yl)cyclohexyl]oxy]quinoline-4-carboxylic acid] | ++ (activity>50% of CFTR amplifier+VX-809 (3 uM) with compound at 10 uM and Compound A at 3 uM) |

Source: patent US11136313B2, “Compounds, compositions, and methods for modulating CFTR” (Proteostasis Therapeutics, Inc., priority 2015, dated 2021)
